In paper PMC2976827 (Neuropharmacology, 2010):

Biological target: T1, GluK1 (Rattus norvegicus, UniProt P22756, DEL560-681)
T1 sequence (P22756 446-559): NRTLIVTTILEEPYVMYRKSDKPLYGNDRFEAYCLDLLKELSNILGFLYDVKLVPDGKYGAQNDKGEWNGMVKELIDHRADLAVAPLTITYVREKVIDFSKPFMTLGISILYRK
T1 sequence (P22756 682-821): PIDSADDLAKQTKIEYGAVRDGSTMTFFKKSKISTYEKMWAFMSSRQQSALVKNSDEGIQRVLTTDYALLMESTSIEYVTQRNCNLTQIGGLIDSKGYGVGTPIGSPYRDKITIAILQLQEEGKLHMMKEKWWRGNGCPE
Assay: crystal structure
Format: binding

Row | Structure (SMILES) | Kd
1 | Cc1cn(C[C@H](N)C(=O)O)c(=O)n(Cc2c(C(=O)O)sc(Br)c2Br)c1=O [UBP315, (S)-1-(2-Amino-2-carboxyethyl)-3-(2-carboxy-4,5-dibromothiophene-3-yl-methyl)-5-methylpyrimidine-2,4-dione] | 33 nM
2 | N[C@@H](Cn1cc(Br)c(=O)n(Cc2ccsc2C(=O)O)c1=O)C(=O)O [UBP318, (S)-1-(2-amino-2-carboxyethyl)-5-bromo-3-(2-carboxythiophene-3-yl-methyl)pyrimidine-2,4-dione] | 186 nM
